Measured values from patent publication US20240000847A1, “METHODS” (bluebird bio, Inc., priority 2020, published 2024).
Where two headings read alike, the source gives them in different places.

Tests used:
bone marrow macrophages = conditions: mice; for F4/80+ macrophage staining in bone marrow smears (pathology): Ctx dosed at 2×100 mg/kg, FIG. 2B, 100 mg/kg; for F4/80+ macrophage staining in bone marrow smears (pathology) / activation status of macrophages recruited to the bone marrow (FcγRI signal): compared to vehicle; for activation status of macrophages recruited to the bone marrow (FcγRI signal): FIG. 2A bottom panel
Experimental: Immunocompetent mice (C57Bl/6 or Balb/C) were dosed with vehicle of one of four different cyclophosphamide (Cytoxan) regimens including: one dose of 50 mg/kg, one dose of 100 mg/kg, two doses of 50 mg/kg approximately 48 hours apart, and two doses of 100 mg/kg approximately 48 hours apart. Three days following the final dose of the regimen, mouse bone marrow was evaluated for macrophage number and phenotype of. Flow cytometry was used to characterize bone marrow macrophages. Briefly, bone marrow was stained with murine macrophage markers including CD11b, F4/80, CD16 (FcγRIII; marker of activated macrophages), CD32 (FcγRII; inhibitory macrophage marker), CD68, and CD64 (FcγRI; marker of activated macrophages). In addition, bone marrow smears were prepared for pathology analysis and stained with F4/80 to quantify macrophages.

[1] = system: hematopoietic stem cells (LSK: lineage negative, Sca1+, ckit+); conditions: mice, 8.3-25 mg/kg anti-CD117 and anti-CD47 antibodies, two doses of 50 mg/kg cyclophosphamide, vs vehicle or antibodies alone
Experimental: In another experiment, immunocompetent mice (C57Bl/6 or Balb/C) were dosed with 8.3-25 mg/kg of anti-CD117 and anti-CD47 antibodies with or without two doses of 50 mg/kg of cyclophosphamide approximately 48 hours apart. Five to seven days after antibody treatment, mouse bone marrow was analyzed by flow cytometry or plated in methocellulose medium to evaluate impacts on the hematopoietic stem cells. […] FIG. 3.

O=P1(N(CCCl)CCCl)NCCCO1 (centres unmarked) [cyclophosphamide]
increase of macrophage content in the bone marrow (bone marrow macrophages; 1 or 2 doses of 50 or 100 mg/kg, three days after final dose, flow cytometry, FIG. 2A top panel): up to 2.5 fold
F4/80+ macrophage staining in bone marrow smears (pathology) (bone marrow macrophages): increased macrophage staining
F4/80+ macrophage staining in bone marrow smears (pathology) (bone marrow macrophages; listed as Cyclophosphamide): increase
macrophage recruitment in bone marrow compared to vehicle (bone marrow macrophages; FIG. 2A top panel): increased macrophage recruitment
activation status of macrophages recruited to the bone marrow (FcγRI signal) (bone marrow macrophages): increased macrophage activation
activation status of macrophages recruited to the bone marrow (FcγRI signal) (bone marrow macrophages; listed as Cyclophosphamide): enhanced activation status
depletion of stem cells (LSK) in the bone marrow ([1]; 5-7 days after antibody, FIG. 3 left): enhanced the antibody-mediated depletion
number of colony forming cells (CFUs) from bone marrow ([1]; methocellulose, FIG. 3 right): reduced the number of colony forming cells
